According to patent US11617735B2, “Purified forms of rofecoxib, methods of manufacture and use” (Tremeau Pharmaceuticals, Inc., priority 2018, dated 2023):
Like-named read-outs stand apart in the source and are kept apart here.

Experiments:
[1] = test system: Chinese hamster lung cells; conditions: all concentrations tested, with and without S-9; cited from earlier work
[2] = test system: mice; conditions: dose levels up to 60 mg/kg; cited from earlier work
[3] = test system: Salmonella typhimurium (TA98, TA100, TA1535, TA97a) and E. coli (WP2, WP2uvrA, WP2 uvrA pKM101); conditions: with and without S9, up to 6000 μg/plate; cited from earlier work
[4] = Stability of rofecoxib drug substance at 40° C./75% RH; type: physicochemical; conditions: Lot 16P3140F851
Description: (§1) Stability data for rofecoxib drug substance (Lot 16P3140F851) are provided in Tables 6A-B. If an individual impurity is ≥0.05% area, the result is reported to the nearest 0.01%. If an individual impurity is <0.02% (LOD), the result is reported as “not detected” (ND). If an individual impurity is <0.05% area but ≥0.02% area, the result is recorded as <0.05% area.

[5] = Solubility in solvents by UHPLC assay; type: physicochemical
Text: The tool called “Early phase solvent selection: solubility prediction” was used. This tool allows to predict the solubility of material in a large scope of solvents, knowing the solubility in some of them. The solubility can be also predicted in function of temperature, and for solvent combinations. The solubility prediction is based on similar structures moieties between solvents. Therefore, the measurement of solubility in 16 different solvents allowed for the estimate of solubility in up to 106 solvents. […] Solubilities were obtained by UHPLC assay. Among these 106 solvents, 27 seemed interesting as solvent or antisolvent. DMF. NMP and DMSO are the solvents in which rofecoxib (RXB-201) is the most soluble (>100 g/L at 30° C.). Nevertheless, ICH Q3C, DMF and NMP were less suitable than DMSO which remains the best option. Thus, no changes were implemented regarding the solvent.
Since the main purpose of the recrystallization is to decrease the rate of one single identified impurity, 4-[4-(methylsulfinyl)phenyl]-3-phenyl-2(5H)-furanone solubilities were measured in a couple of probable antisolvents identified in Table 9. A reference of 4-[4-(methylsulfinyl)phenyl]-3-phenyl-2(5H)-furanone (CHG P059-038) was synthesized at lab on 8 g for this study, with 98% purity, as per International Patent Application No. WO/2005/120584, which is incorporated herein in its entirety. Table 10 below reports the solubility of 4-[4-(methylsulfinyl)phenyl]-3-phenyl-2(5H)-furanone in various antisolvent candidates. It is noteworthy that 4-[4-(methylsulfinyl)phenyl]-3-phenyl-2(5H)-furanone is very soluble in acetic acid. […] Alcohols can alternatively be employed as antisolvent.

[6] = Stability of isolated crude rofecoxib towards hydrogen peroxide; type: physicochemical; conditions: crude unwashed, stored at room temperature for 17 days (CHG P059-104)
Description: Several verifications were performed to confirm the feasibility of hydrogen peroxide removal: • No corrosion of Stainless steel 316L in contact with crude rofecoxib (RXB-201) mother liquors (enriched in excess hydrogen peroxide) after 10 days at 20° C. […] Crude washings seem to be efficient enough to remove peroxide traces in cake washings. • Stability of isolated crude rofecoxib (RXB-201) towards hydrogen peroxide is very satisfying. Crude unwashed rofecoxib (RXB-201) was stored at room temperature for 17 days. No evolution of UHPLC profile was observed (CHG P059-104).

[7] = test system: CHO cells; conditions: 25 to 125 μM with S-9 or 25 to 100 μM without S-9; cited from earlier work
[8] = Stability of rofecoxib drug substance at 25° C./60% RH; type: physicochemical; conditions: Lot 16P3140F851
Description: as §1

[9] = test system: rats; conditions: dose levels up to 8 mg/kg; cited from earlier work

CS(=O)(=O)c1ccc(C2=C(c3ccccc3)C(=O)OC2)cc1 [Rofecoxib, 4-[4-(methylsulfonyl)phenyl]-3-phenyl-2(5H)-furanone]
Mutations in Chinese hamster lung cells [1]: negative
Carcinogenicity [2]: not carcinogenic
Mutagenicity [3]: negative
Appearance ([4]; 1 Month): Off-white
Assay by HPLC ([4]; 1 Month): 99.6 w/w
Impurities by HPLC: RRT ~ 0.5 ([4]; 1 Month): <0.05 % area
Impurities by HPLC: RXB-furanone ([4]; 1 Month): 0.08 % area
Impurities by HPLC: Total Impurities ([4]; 1 Month): 0.11 % area
Water Content by Karl Fischer ([4]; 1 Month): 0.07%
Appearance ([4]; 3 Month): White
Assay by HPLC ([4]; 3 Month): 100.5 w/w
Impurities by HPLC: RRT ~ 0.5 ([4]; 3 Month): <0.05 % area
Impurities by HPLC: RXB-furanone ([4]; 3 Month): 0.08 % area
Impurities by HPLC: Total Impurities ([4]; 3 Month): 0.12 % area
Water Content by Karl Fischer ([4]; 3 Month): 0.09%
Appearance ([4]; Initial): Off-white
Assay by HPLC ([4]; Initial): 99.8 w/w
Impurities by HPLC: RRT ~ 0.5 ([4]; Initial): <0.05 % area
Impurities by HPLC: RXB-furanone ([4]; Initial): 0.08 % area
Impurities by HPLC: Total Impurities ([4]; Initial): 0.11 % area
Polymorphic form by XRPD ([4]; Initial): Form A
Water Content by Karl Fischer ([4]; Initial): 0.12%
solubility ([5]; DMF, 30 °C): 133 mg/mL
solubility ([5]; DMF, 30 °C, organic solvent or mixture, DMF, 30 °C, read-out: Solubility): > 100 mg/mL
solubility ([5]; DMSO, 20 °C, organic solvent or mixture, DMSO, 20 °C, read-out: Solubility): 93 mg/mL
solubility ([5]; DMSO, 30 °C): 107 mg/mL
solubility ([5]; DMSO, 30 °C, organic solvent or mixture, DMSO, 30 °C, read-out: Solubility): > 100 mg/mL
solubility ([5]; DMSO, 40 °C, organic solvent or mixture, DMSO, 40 °C, read-out: Solubility): 133 mg/mL
solubility ([5]; DMSO, 50 °C, organic solvent or mixture, DMSO, 50 °C, read-out: Solubility): 181 mg/mL
solubility ([5]; DMSO, 60 °C, organic solvent or mixture, DMSO, 60 °C, read-out: Solubility): 181 mg/mL
solubility ([5]; NMP, 30 °C, organic solvent or mixture, NMP, 30 °C, read-out: Solubility): > 100 mg/mL
solubility ([5]; acetic acid, 30 °C, organic solvent or mixture, Acetic acid, 30 °C, read-out: Solubility): 5 mg/mL
solubility ([5]; acetone, 30 °C, organic solvent or mixture, Acetone, 30 °C, read-out: Solubility): 28 mg/mL
solubility ([5]; acetonitrile, 30 °C, organic solvent or mixture, Acetonitrile, 30 °C, read-out: Solubility): 41 mg/mL
solubility ([5]; anisole, 30 °C, organic solvent or mixture, Anisole, 30 °C, read-out: Solubility): 22 mg/mL
solubility ([5]; chlorobenzene, 30 °C, organic solvent or mixture, Chlorobenzene, 30 °C, read-out: Solubility): 2.3 mg/mL
solubility ([5]; dichloromethane, 30 °C, organic solvent or mixture, Dichloromethane, 30 °C, read-out: Solubility): 45 mg/mL
solubility ([5]; ethyl acetate, 30 °C, organic solvent or mixture, Ethyl acetate, 30 °C, read-out: Solubility): 4.7 mg/mL
solubility ([5]; methanol, 30 °C, organic solvent or mixture, Methanol, 30 °C, read-out: Solubility): 1.8 mg/mL
solubility ([5]; n-butanol, 30 °C, organic solvent or mixture, n-butanol, 30 °C, read-out: Solubility): 0.2 mg/mL
solubility ([5]; n-heptane, 30 °C, organic solvent or mixture, n-heptane, 30 °C, read-out: Solubility): < 0.1 mg/mL
solubility ([5]; toluene, 30 °C, organic solvent or mixture, Toluene, 30 °C, read-out: Solubility): 1.2 mg/mL
solubility ([5]; water, 30 °C, water, 30 °C, read-out: Solubility): < 0.1 mg/mL
Solubility in water (descriptive) ([5]; water, insoluble regarding US pharmacopeia): very poorly soluble
Evolution of UHPLC profile [6]: No evolution
Percent of aberrant cells [7]: no significant increases
Appearance ([8]; 3 Month): White
Assay by HPLC ([8]; 3 Month): 100.4 % w/w
Impurities by HPLC: RRT ~ 0.5 ([8]; 3 Month): <0.05 % area
Impurities by HPLC: RXB-furanone ([8]; 3 Month): 0.08 % area
Impurities by HPLC: Total Impurities ([8]; 3 Month): 0.11 % area
Water Content by Karl Fischer ([8]; 3 Month): 0.08%
Appearance ([8]; Initial): Off-white
Assay by HPLC ([8]; Initial): 99.8 % w/w
Impurities by HPLC: RRT ~ 0.5 ([8]; Initial): <0.05 % area
Impurities by HPLC: RXB-furanone ([8]; Initial): 0.08 % area
Impurities by HPLC: Total Impurities ([8]; Initial): 0.11 % area
Polymorphic form by XRPD ([8]; Initial): Form A
Water Content by Karl Fischer ([8]; Initial): 0.12%
Carcinogenicity [9]: not carcinogenic
